# ChEMBL document CHEMBL2086254, “Synthesis and identification of novel indolo[2,3-a]pyrimido[5,4-c]carbazoles as a new class of anti-cancer agents” (Eur J Med Chem, 2012)
# What was measured:
# Format in all cases: functional
# MCF7 = assay: Cytotoxicity against human MCF7 cells assessed as cell growth at 10 uM after 48 hrs by SRB assay relative to control; conditions: MCF7, 48 h, read-out: Activity
# T47D = assay: Cytotoxicity against human T47D cells assessed as cell growth at 10 uM after 48 hrs by SRB assay relative to control; conditions: read-out: Activity
# UACC-62 = assay: Cytotoxicity against human UACC62 cells assessed as cell growth at 10 uM after 48 hrs by SRB assay relative to control; conditions: UACC-62, 48 h, read-out: Activity
# RXF 393 = assay: Cytotoxicity against human RXF393 cells assessed as cell growth at 10 uM after 48 hrs by SRB assay relative to control; conditions: RXF 393, 48 h, read-out: Activity
# NCI-H522 = assay: Cytotoxicity against human NCI-H522 cells assessed as cell growth at 10 uM after 48 hrs by SRB assay relative to control; conditions: NCI-H522, 48 h, read-out: Activity
# M14 = assay: Cytotoxicity against human M14 cells assessed as cell growth at 10 uM after 48 hrs by SRB assay relative to control; conditions: M14, 48 h, read-out: Activity
# SK-MEL-5 = assay: Cytotoxicity against human SK-MEL-5 cells assessed as cell growth at 10 uM after 48 hrs by SRB assay relative to control; conditions: SK-MEL-5, 48 h, read-out: Activity
# KM12 = assay: Cytotoxicity against human KM12 cells assessed as cell growth at 10 uM after 48 hrs by SRB assay relative to control; conditions: KM12, 48 h, read-out: Activity
# NCI-H23 = assay: Cytotoxicity against human NCI-H23 cells assessed as cell growth at 10 uM after 48 hrs by SRB assay relative to control; conditions: NCI-H23, 48 h, read-out: Activity
# MDA-MB-435 = assay: Cytotoxicity against human MDA-MB-435 cells assessed cell growth at 10 uM after 48 hrs by SRB assay relative to control
# ACHN = assay: Cytotoxicity against human ACHN cells assessed as cell growth at 10 uM after 48 hrs by SRB assay relative to control; conditions: read-out: Activity
# UACC-257 = assay: Cytotoxicity against human UACC257 cells assessed as cell growth at 10 uM after 48 hrs by SRB assay relative to control; conditions: UACC-257, 48 h, read-out: Activity
# IGROV-1 = assay: Cytotoxicity against human IGROV1 cells assessed as cell growth at 10 uM after 48 hrs by SRB assay relative to control; conditions: IGROV-1, 48 h, read-out: Activity
# SW-620 = assay: Cytotoxicity against human SW620 cells assessed as cell growth at 10 uM after 48 hrs by SRB assay relative to control; conditions: SW-620, 48 h, read-out: Activity
# HCT-116 = assay: Cytotoxicity against human HCT116 cells assessed as cell growth at 10 uM after 48 hrs by SRB assay relative to control; conditions: HCT-116, 48 h, read-out: Activity
# Malme-3M = assay: Cytotoxicity against human MALME-3M cells assessed as cell growth at 10 uM after 48 hrs by SRB assay relative to control; conditions: read-out: Activity
# NCI/ADR-RES = assay: Cytotoxicity against human NCI/ADR-RES cells assessed as cell growth at 10 uM after 48 hrs by SRB assay relative to control; conditions: read-out: Activity
# BT-549 = assay: Cytotoxicity against human BT549 cells assessed as cell growth at 10 uM after 48 hrs by SRB assay relative to control; conditions: BT-549, 48 h, read-out: Activity
# SK-OV-3 = assay: Cytotoxicity against human SKOV3 cells assessed as cell growth at 10 uM after 48 hrs by SRB assay relative to control; conditions: SK-OV-3, 48 h, read-out: Activity
# LOX IMVI = assay: Cytotoxicity against human LOXIMVI cells assessed as cell growth at 10 uM after 48 hrs by SRB assay relative to control; conditions: read-out: Activity
# A549 = assay: Cytotoxicity against human A549 cells assessed as cell growth at 10 uM after 48 hrs by SRB assay relative to control; conditions: A549, 48 h, read-out: Activity
# SF-539 = assay: Cytotoxicity against human SF539 cells assessed as cell growth at 10 uM after 48 hrs by SRB assay relative to control; conditions: SF-539, 48 h, read-out: Activity
# K562 = assay: Cytotoxicity against human K562 cells assessed as cell growth at 10 uM after 48 hrs by SRB assay relative to control; conditions: K562, 48 h, read-out: Activity
# OVCAR-3 = assay: Cytotoxicity against human OVCAR3 cells assessed as cell growth at 10 uM after 48 hrs by SRB assay relative to control; conditions: OVCAR-3, 48 h, read-out: Activity
# NCI-H226 = assay: Cytotoxicity against human NCI-H226 cells assessed as cell growth at 10 uM after 48 hrs by SRB assay relative to control; conditions: NCI-H226, 48 h, read-out: Activity
# SF-295 = assay: Cytotoxicity against human SF295 cells assessed as cell growth at 10 uM after 48 hrs by SRB assay relative to control; conditions: SF-295, 48 h, read-out: Activity
# UO-31 = assay: Cytotoxicity against human UO31 cells assessed as cell growth at 10 uM after 48 hrs by SRB assay relative to control; conditions: UO-31, 48 h, read-out: Activity
# HCC 2998 = assay: Cytotoxicity against human HCC2998 cells assessed as cell growth at 10 uM after 48 hrs by SRB assay relative to control; conditions: HCC 2998, 48 h, read-out: Activity
# A498 = assay: Cytotoxicity against human A498 cells assessed as cell growth at 10 uM after 48 hrs by SRB assay relative to control; conditions: A498, 48 h, read-out: Activity
# SK-MEL-2 = assay: Cytotoxicity against human SK-MEL-2 cells assessed as cell growth at 10 uM after 48 hrs by SRB assay relative to control; conditions: SK-MEL-2, 48 h, read-out: Activity
# SK-MEL-28 = assay: Cytotoxicity against human SK-MEL-28 cells assessed as cell growth at 10 uM after 48 hrs by SRB assay relative to control; conditions: SK-MEL-28, 48 h, read-out: Activity
# [1] = Cytotoxicity against human Hs 578T cells assessed as cell growth at 10 uM after 48 hrs by SRB assay relative to control; conditions: read-out: Activity
# NCI-H460 = assay: Cytotoxicity against human NCI-H460 cells assessed as cell growth at 10 uM after 48 hrs by SRB assay relative to control; conditions: NCI-H460, 48 h, read-out: Activity
# SNB-75 = assay: Cytotoxicity against human SNB75 cells assessed as cell growth at 10 uM after 48 hrs by SRB assay relative to control; conditions: SNB-75, 48 h, read-out: Activity
# HCT-15 = assay: Cytotoxicity against human HCT15 cells assessed as cell growth at 10 uM after 48 hrs by SRB assay relative to control; conditions: HCT-15, 48 h, read-out: Activity
SMILES,growth at 10 µM (MCF7) [%],growth at 10 µM (T47D) [%],growth at 10 µM (UACC-62) [%],growth at 10 µM (RXF 393) [%],growth at 10 µM (NCI-H522) [%],growth at 10 µM (M14) [%],growth at 10 µM (SK-MEL-5) [%],growth at 10 µM (KM12) [%],growth at 10 µM (NCI-H23) [%],Activity (MDA-MB-435) [%],growth at 10 µM (ACHN) [%],growth at 10 µM (UACC-257) [%],growth at 10 µM (IGROV-1) [%],growth at 10 µM (SW-620) [%],growth at 10 µM (HCT-116) [%],growth at 10 µM (Malme-3M) [%],growth at 10 µM (NCI/ADR-RES) [%],growth at 10 µM (BT-549) [%],growth at 10 µM (SK-OV-3) [%],growth at 10 µM (LOX IMVI) [%],also measured
Cn1c2ccccc2c2c3nc(N)[nH]c(=O)c3c3c4ccccc4n(C)c3c21,25,75,81.3,94,46.1,34.9,48.8,19.9,65.4,24.36,29.5,79.7,65.8,31.6,34,36.2,48.7,76.6,34.9,60.9,growth at 10 µM (A549): 58.5%; growth at 10 µM (SF-539): 99.1%; growth at 10 µM (K562): 44.4%; growth at 10 µM (OVCAR-3): 82.9%; growth at 10 µM (NCI-H226): 78.1%; growth at 10 µM (SF-295): 86.6%; growth at 10 µM (UO-31): 7.16%; growth at 10 µM (HCC 2998): 60.9%; growth at 10 µM (A498): 114%; growth at 10 µM (SK-MEL-2): 32%; growth at 10 µM (SK-MEL-28): 91%; growth at 10 µM [1]: 113%; growth at 10 µM (NCI-H460): 40.6%; growth at 10 µM (SNB-75): 96.8%; growth at 10 µM (HCT-15): 43.7%
Cn1cc(-c2[nH]c(=S)[nH]c(=O)c2-c2cn(C)c3ccccc23)c2ccccc21,68.2,98.3,93.4,123,96.7,106,96.2,97.9,94.2,77.23,95.5,94.2,75.7,98,98.8,99.5,101,102,100,92.2,growth at 10 µM (A549): 103%; growth at 10 µM (SF-539): 99.1%; growth at 10 µM (K562): 87%; growth at 10 µM (OVCAR-3): 98.7%; growth at 10 µM (NCI-H226): 87.1%; growth at 10 µM (SF-295): 94.2%; growth at 10 µM (UO-31): 75.8%; growth at 10 µM (HCC 2998): 113%; growth at 10 µM (A498): 102%; growth at 10 µM (SK-MEL-2): 111%; growth at 10 µM (SK-MEL-28): 104%; growth at 10 µM [1]: 103%; growth at 10 µM (NCI-H460): 93%; growth at 10 µM (SNB-75): 85.7%; growth at 10 µM (HCT-15): 95.2%
Cn1cc(-c2[nH]c(=O)[nH]c(=O)c2-c2cn(C)c3ccccc23)c2ccccc21,60.1,82.4,88.3,111,93.1,89.8,101,93.3,91.4,73.39,92.5,82.1,62.2,88.8,91.7,98.6,103,95.8,96.8,104,growth at 10 µM (A549): 96.9%; growth at 10 µM (SF-539): 111%; growth at 10 µM (K562): 93.8%; growth at 10 µM (OVCAR-3): 97.3%; growth at 10 µM (NCI-H226): 86.2%; growth at 10 µM (SF-295): 97.1%; growth at 10 µM (UO-31): 75.8%; growth at 10 µM (HCC 2998): 109%; growth at 10 µM (A498): 112%; growth at 10 µM (SK-MEL-2): 118%; growth at 10 µM (SK-MEL-28): 103%; growth at 10 µM [1]: 105%; growth at 10 µM (NCI-H460): 88.2%; growth at 10 µM (SNB-75): 70.2%; growth at 10 µM (HCT-15): 95%
